The results in this text go back to US12544391B2, “CD73 inhibitors” (ORIC Pharmaceuticals, Inc., priority 2019, dated 2026).

The structures appear in SMILES notation. A value given as a limit tells only on which side of the number the result lay.

Assay [1] has as its target T1, cell bound CD73 on Human NSCLC H1568 cells (Homo sapiens, UniProt P21589).
T1 construct: Human NSCLC H1568 cells expressing endogenous CD73 on their surface; host or cells: H1568 (human NSCLC)
T1 sequence (P21589 27-549): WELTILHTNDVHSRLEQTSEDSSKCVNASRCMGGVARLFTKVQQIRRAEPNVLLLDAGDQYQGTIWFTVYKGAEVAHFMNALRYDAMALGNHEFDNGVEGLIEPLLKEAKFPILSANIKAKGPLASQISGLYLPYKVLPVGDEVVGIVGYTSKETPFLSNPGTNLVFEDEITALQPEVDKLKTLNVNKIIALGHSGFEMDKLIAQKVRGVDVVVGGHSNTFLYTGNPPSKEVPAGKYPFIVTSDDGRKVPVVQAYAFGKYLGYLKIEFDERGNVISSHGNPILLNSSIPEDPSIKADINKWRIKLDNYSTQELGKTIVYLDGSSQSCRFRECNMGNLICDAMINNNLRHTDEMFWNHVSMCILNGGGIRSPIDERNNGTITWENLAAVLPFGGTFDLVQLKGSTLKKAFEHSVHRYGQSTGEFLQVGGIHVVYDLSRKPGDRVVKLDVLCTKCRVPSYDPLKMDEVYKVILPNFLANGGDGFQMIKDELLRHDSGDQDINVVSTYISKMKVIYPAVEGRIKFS
The assay can be described thus: Cellular CD73 assay in H1568 cells, adenosine produced from AMP by LC-MS/MS. It counts as cell-based. The settings on record: RPMI/10% human plasma, 1 h with AMP/EHNA, adenosine in supernatant. The method, then:
Activity of cell bound CD73 was assessed by direct measurement of adenosine produced from AMP using liquid chromatography with tandem mass-spectrometry (LC-MS/MS). Human NSCLC H1568 cells expressing endogenous CD73 on their surface were obtained from ATCC(CRL-5876) and cultured in growth medium (RPMI, 10% FBS, 1 mM L-glutamine, […]). Cells were seeded onto 96-well tissue culture plates at 10,000 cells/well and allowed to adhere for 20-24 h. 500× serial compound dilutions were prepared in DMSO in a 12-point 3-fold titration, and then diluted 1:50 into RPMI supplemented with 10% human plasma (BioIVT, cat #HMPLEDTA5) generating 10× compound dilutions. Growth medium was removed from the cells and replaced with […] of RPMI/10% human plasma. 10 mL of 10× compound dilutions were then added to the cells and incubated for 15 min at 37° C., 5% CO2. Then 10 mL of 100 mM AMP/50 mM EHNA (Sigma-Aldrich, A1752 and E114) were added to a final concentration of […]. After 1 h incubation at 37° C., 5% CO2, […] of supernatant was removed from the cells and transferred to a deep well polypropylene 96-well plate (Costar #3961) prefilled with 240 mL of organic solvent composed of methanol:acetonitrile (1:1, v/v) with 0.1% formic acid, plus 150 ng/mL of Adenosine-15N and AMP-13C as internal standards. Amount of unlabeled adenosine and AMP in each well was measured on AB Sciex API 4000 QTrap with Shimadzu LC-30AD UPLC system. Limits of adenosine and AMP detection were 10-10,000 nM and 20-10,000 nM, respectively. The IC50 values were determined based on amount of adenosine in the supernatant using four parameter non-linear regression curve fit. DMSO treated cells produced 3000-4000 nM adenosine under these conditions with negligible variability on the same day assays. Small amount of adenosine generated from AMP in the absence of cells (less than 100 nM) was used as 100% inhibition control. […]

Assay [2] has as its target T2, mouse CD73 (EMT6 breast cancer cells) (Mus musculus, UniProt Q61503).
T2 construct: mouse EMT6 breast cancer cells which express endogenous CD73 on their surface; host or cells: EMT6 (mouse breast cancer)
T2 sequence (Q61503 29-551): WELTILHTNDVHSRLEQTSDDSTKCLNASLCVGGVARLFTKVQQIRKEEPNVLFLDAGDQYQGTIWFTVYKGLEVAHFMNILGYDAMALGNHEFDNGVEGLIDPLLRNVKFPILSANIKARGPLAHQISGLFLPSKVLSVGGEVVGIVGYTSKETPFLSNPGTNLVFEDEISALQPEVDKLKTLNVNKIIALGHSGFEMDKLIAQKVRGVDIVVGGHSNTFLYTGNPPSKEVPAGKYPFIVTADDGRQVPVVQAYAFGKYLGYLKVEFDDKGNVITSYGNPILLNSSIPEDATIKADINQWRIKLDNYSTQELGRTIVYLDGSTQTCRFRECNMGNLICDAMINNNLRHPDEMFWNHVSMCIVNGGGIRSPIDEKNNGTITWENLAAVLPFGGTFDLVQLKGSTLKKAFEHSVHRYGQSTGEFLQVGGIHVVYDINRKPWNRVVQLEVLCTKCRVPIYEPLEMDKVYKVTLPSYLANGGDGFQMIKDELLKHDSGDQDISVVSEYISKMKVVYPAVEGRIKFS
The assay can be described thus: Cellular CD73 assay in mouse EMT6 breast cancer cells, adenosine by LC-MS/MS. It counts as cell-based. The settings on record: PBS/3% BSA, adenosine in supernatant. As for the experimental part: Activity of cell bound CD73 was assessed by direct measurement of adenosine produced from AMP using liquid chromatography with tandem mass-spectrometry (LC-MS/MS). Human NSCLC H1568 cells expressing endogenous CD73 on their surface were obtained from ATCC(CRL-5876) and cultured in growth medium (RPMI, 10% FBS, 1 mM L-glutamine, 100 mL penicillin-streptomycin). Cells were seeded onto 96-well tissue culture plates at 10,000 cells/well and allowed to adhere for 20-24 h. 500× serial compound dilutions were prepared in DMSO in a 12-point 3-fold titration, and then diluted 1:50 into RPMI supplemented with 10% human plasma (BioIVT, cat #HMPLEDTA5) generating 10× compound dilutions. Growth medium was removed from the cells and replaced with […] of RPMI/10% human plasma. 10 mL of 10× compound dilutions were then added to the cells and incubated for 15 min at 37° C., 5% CO2. Then 10 mL of 100 mM AMP/50 mM EHNA (Sigma-Aldrich, A1752 and E114) were added to a final concentration of 10 mM AMP/5 mM EHNA. After 1 h incubation at 37° C., 5% CO2, 80 mL of supernatant was removed from the cells and transferred to a deep well polypropylene 96-well plate (Costar #3961) prefilled with 240 mL of organic solvent composed of methanol:acetonitrile (1:1, v/v) with 0.1% formic acid, plus 150 ng/mL of Adenosine-15N and AMP-13C as internal standards. Amount of unlabeled adenosine and AMP in each well was measured on AB Sciex API 4000 QTrap with Shimadzu LC-30AD UPLC system. Limits of adenosine and AMP detection were 10-10,000 nM and 20-10,000 nM, respectively. The IC50 values were determined based on amount of adenosine in the supernatant using four parameter non-linear regression curve fit. DMSO treated cells produced 3000-4000 nM adenosine under these conditions with negligible variability on the same day assays. Small amount of adenosine generated from AMP in the absence of cells (less than 100 nM) was used as 100% inhibition control.
To determine activity of compounds on mouse CD73 mouse EMT6 breast cancer cells which express endogenous CD73 on their surface (ATCC, CRL-2755) were used. […]

The target in a further assay is T3, CD73 (Homo sapiens, UniProt P21589).
T3 sequence (P21589 27-549): T1 sequence (P21589 27-549)
The assay is described as follows: CD73 biochemical assay, Malachite Green detection of AMP hydrolysis. The settings on record: CD73 320 pM, AMP 15 μM, Malachite Green readout. The method in brief:
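Human CD73 (0.3208 nM, i.e. 320 pM) preincubated 15 min RT with compounds (10-point ½-log titration from 100 μM, duplicates) in Tris pH 7.4, 5 mM MgCl2, Brij-35, BSA; 15 μM AMP added, 10 min RT. Phosphate read by Malachite Green absorbance; IC50 determined.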

What is called EC50 is the concentration giving half of the maximal effect. Read a high EC50 as weaker potency. What is called IC50 is the concentration needed to halve the response being measured. A lower IC50 goes with greater potency in that assay. In the case of `COC[C@](COCc1nn[nH]n1)(OC[C@H]1O[C@@H](c2ccc3c(NC4CCCC4)nc(Cl)nn23)[C@H](O)[C@@H]1O)P(=O)(O)O` (single isomer, unassigned) [Example 9], the concentration for a half-maximal effect (EC50) in assay [1] and in assay [2] was no more than 500 pM in each case. The same compound showed an IC50 against CD73 of no more than 500 pM.
In the case of `O=P(O)(O)[C@@](CO)(COCc1nn[nH]n1)OC[C@H]1O[C@@H](c2ccc3c(NC4CCCC4)nc(Cl)nn23)[C@H](O)[C@@H]1O` [Example 15, ((S)-1-((2H-Tetrazol-5-yl)methoxy)-2-(((2R,3S,4R,5S)-5-(2-chloro-4-(cyclopentylamino)pyrrolo[2,1-f][1,2,4]triazin-7-yl)-3,4-dihydroxytetrahydrofuran-2-yl)methoxy)-3-hydroxypropan-2-yl)phosphonic acid], the EC50 in assay [1] was 500 to 1000 pM; in assay [2], 1000 to 100000 pM. For the same compound, the IC50 against CD73 was no more than 500 pM.
For `O=P(O)(O)[C@@](CO)(COCc1nn[nH]n1)OC[C@H]1O[C@@H](c2ccc3c(NC4CCC4)nc(Cl)nn23)[C@H](O)[C@@H]1O` [Example 51, ((S)-1-((2H-tetrazol-5-yl)methoxy)-2-(((2R,3S,4R,5S)-5-(2-chloro-4-(cyclobutylamino)pyrrolo[2,1-f][1,2,4]triazin-7-yl)-3,4-dihydroxytetrahydrofuran-2-yl)methoxy)-3-hydroxypropan-2-yl)phosphonic acid], in that order: no more than 500 pM, 500 to 1000 pM and no more than 500 pM.
